Measured values from patent publication US11999707B1, “N′-(2-(5-(4-chlorophenyl)-1,3,4-oxadiazol-2-ylthio)acetoxy)-1-naphthimidamide as an antimicrobial compound” (KING FAISAL UNIVERSITY, priority 2023, dated 2024).

Assays:
Format in all cases: cell-based
Aspergillus flavus = assay: Agar plate disc-diffusion, antifungal, Aspergillus flavus; details: Fungal
Description: (§1) The agar plate disc-diffusion method was applied. […] The discs were then placed onto the surface of agar plates (nutrient agar for bacteria and Sabouraud's dextrose agar for fungi) seeded with the test organism. Each plate contained 15 mL of the agar medium, previously seeded with 0.2 mL of the broth culture of each organism pregrown for 18 hours. The plates were incubated at 37° C. for 48 hours and 72 hours for fungi. The inhibition zones were measured in mm. Discs impregnated with DMSO were used as a control, and their inhibition zone was subtracted from the tested compound's actual inhibition zone.

Pseudomonas aeruginosa = assay: Agar plate disc-diffusion, antibacterial, Pseudomonas aeruginosa; details: Gram negative
Description: as §1

[1] = tested on: Chrysosporium keratinophilum; assay: Agar plate disc-diffusion, antifungal, Chrysosporium keratinophilum; details: Fungal
Description: as §1

Staphylococcus aureus = assay: Agar plate disc-diffusion, antibacterial, Staphylococcus aureus; details: Gram positive
Description: as §1

Bacillus cereus = assay: Agar plate disc-diffusion, antibacterial, Bacillus cereus; details: Gram positive
Description: as §1

Escherichia coli = assay: Agar plate disc-diffusion, antibacterial, Escherichia coli; details: Gram negative
Description: as §1

[2] = A = concentration of comp. = 10,000 μL
[3] = B = concentration of comp. = 30,000 μL
[4] = C = concentration of comp. = 50,000 μL

N/C(=N\OC(=O)CSc1nnc(-c2ccc(Cl)cc2)o1)c1cccc2ccccc12 [compound 3, N′-(2-(5-(4-chlorophenyl)-1,3,4-oxadiazol-2-ylthio)acetoxy)-1-naphthimidamide]
inhibition zone, Aspergillus flavus, A (Aspergillus flavus; [2]): 24 mm | inhibition zone, Aspergillus flavus, B (Aspergillus flavus; [3]): 27 mm | inhibition zone, Aspergillus flavus, C (Aspergillus flavus; [4]): 36 mm | inhibition zone, Pseudomonas aeruginosa, A (Pseudomonas aeruginosa; [2]): 26 mm | inhibition zone, Pseudomonas aeruginosa, B (Pseudomonas aeruginosa; [3]): 28 mm | inhibition zone, Pseudomonas aeruginosa, C (Pseudomonas aeruginosa; [4]): 45 mm | inhibition zone, Chrysosporium keratinophilum, A [1, 2]: 22 mm | inhibition zone, Chrysosporium keratinophilum, B [1, 3]: 28 mm | inhibition zone, Chrysosporium keratinophilum, C [1, 4]: 39 mm | inhibition zone, Staphylococcus aureus, A (Staphylococcus aureus; [2]): 27 mm | inhibition zone, Staphylococcus aureus, B (Staphylococcus aureus; [3]): 30 mm | inhibition zone, Staphylococcus aureus, C (Staphylococcus aureus; [4]): 38 mm | inhibition zone, Bacillus Cereus, A (Bacillus cereus; [2]): 22 mm | inhibition zone, Bacillus Cereus, B (Bacillus cereus; [3]): 25 mm | inhibition zone, Bacillus Cereus, C (Bacillus cereus; [4]): 34 mm | inhibition zone, Escherichia coli, A (Escherichia coli; [2]): 26 mm | inhibition zone, Escherichia coli, B (Escherichia coli; [3]): 32 mm | inhibition zone, Escherichia coli, C (Escherichia coli; [4]): 50 mm
